Columns and labels:
[1] = tested on: blood brain barrier (BBB); experiment: brain uptake with and without blood brain barrier disruption; assay type: in vivo, rat
Method: Male Sprague-Dawley rats were anesthetized with sodium pentobarbital and the left external carotid artery was cannulated close to the internal and external carotid bifurcation. Using saline as control and 25% D-mannitol as hypertonic solution, each were perfused retrogradely in six animals (0.3 mL/kg/sec) for 30 seconds. Two minutes later, ˜1 mCi imaging agent 1 was injected via tail vein and the brain was imaged with a microPET camera for 30 minutes. […] Following completion of imaging, the brain was harvested, photographed and dissected into left and right hemispheres and cerebellum. The tissue content of imaging agent 1 radioactivity was measured by gamma counter and Evans blue levels were determined by fluorescence method for calculation of the % injected dose/gram tissue and μg Evan blue/gram tissue, respectively.

myocardial ischemia = experiment: imaging agent 1 and ^82Rb PET versus ^99mTc sestamibi SPECT, perfusion defect assessment (phase II); assay type: in vivo, human
Method: Twenty-six patients (20 men) who underwent ^99mTc sestamibi SPECT and imaging agent 1 PET within 6 months at a single center in a phase II clinical trial were compared to 23 patients (matched by summed difference score (SDS) on SPECT) who underwent ^99mTc sestamibi SPECT and ^82Rb PET (25-50 mCi) within 6 months without change in clinical state. PET was performed with imaging agent 1 at rest (2.3-3.9 mCi) followed 60 min or 24 h later with exercise or adenosine stress (7.3-8.6 mCi). Perfusion defects on SPECT and PET were assessed by computer-assisted visual interpretation, using the standard 17 segment, 5 point-scoring model (0=normal; 4=absent uptake). The extent and severity of ischemia (SDS) was derived from the difference between summed stress score (SSS) and summed rest scores (SRS).
Twenty six patients (20 men) underwent SPECT and PET within 6-months. PET was performed with imaging agent 1 at rest (2.3-3.9 mCi) followed 60 min (n=18) or 24 h (n=8) later with exercise (n=16) or adenosine (n=10) stress (7.3-8.6 mCi). Image quality of SPECT and PET was consensually assessed by 2 independent blinded readers and graded as excellent, good, or fair. Stress and rest perfusion defects on SPECT and PET were assessed by the same readers by computer-assisted visual interpretation, using the standard 17 segment, 5 point-scoring model (0=normal; 4=absent uptake). The extent and severity of ischemia (summed difference score (SDS)) was derived from the difference between summed stress (SSS) and summed rest scores (SRS). Image quality with PET was excellent in 24 and good in 2 patients. In contrast, there were 7 excellent, 18 good, and 1 fair quality study, p<0.001 by SPECT. In 14 patients with abnormal SPECT (SSS≥4), mean SDS was greater with PET than with SPECT (9.6±1.8 vs. 5.4±0.7, p=0.02). In all 12 patients with normal SPECT (SSS<4), SDS was zero by PET and SPECT.

[2] = tested on: stress induced myocardial perfusion abnormalities; experiment: rest-stress imaging agent 1 PET versus Tc-99m Sestamibi SPECT MPI, single center; assay type: in vivo, human; details: myocardial segments supplied by diseased coronary arteries, 13 patients
Method: Thirteen patients, from a single center, underwent rest-stress Tc-99m Sestamibi SPECT MPI, rest-stress imaging agent 1 PET MPI and coronary angiography. In each patient, 17 myocardial segments were visually scored for rest and stress images by independent observers who were blinded to all other results. For each patient, summed stress scores (SSS), summed rest scores (SRS), and summed difference scores (SDS) were determined from segmental scores. Percent narrowing in each coronary artery was evaluated blindly and 70% luminal diameter narrowing was considered significant.

[3] = 25% D-mannitol compared to saline control
[4] = matched group of 13 patients with abnormal SPECT (^82Rb PET group)

SMILES | increase in uptake, cerebellum [1, 3] [%] | increase in uptake, left hemisphere [1, 3] [%] | increase in uptake, right hemisphere [1, 3] [%] | Brain uptake, cerebellum ([1]; BBBD (25% D-mannitol) rats) [µg/g] | Brain uptake, left hemisphere ([1]; BBBD (25% D-mannitol) rats) [µg/g] | Brain uptake, right hemisphere ([1]; BBBD (25% D-mannitol) rats) [µg/g] | Brain uptake, cerebellum ([1]; control (saline) rats) [µg/g] | Brain uptake, left hemisphere ([1]; control (saline) rats) [µg/g] | Brain uptake, right hemisphere ([1]; control (saline) rats) [µg/g] | mean SDS (summed difference score) (myocardial ischemia; [4]) | differences in SDS, PET compared to SPECT (myocardial ischemia; patients with normal SPECT (SSS<4)) | SDS (myocardial ischemia; 12 patients with normal SPECT (SSS<4)) | mean SDS (summed difference score) (myocardial ischemia; 14 patients with abnormal SPECT (SSS≥4)) | image quality excellent, number of patients (myocardial ischemia; 26 patients, 2 blinded readers) | image quality fair, number of patients (myocardial ischemia; 26 patients, 2 blinded readers) | image quality good, number of patients (myocardial ischemia; 26 patients, 2 blinded readers) | SDS [2] | SRS [2] | SSS [2]
Cc1cc(-c2ccc(/N=N/c3ccc4c(S(=O)(=O)O)cc(S(=O)(=O)O)c(N)c4c3O)c(C)c2)ccc1/N=N/c1ccc2c(S(=O)(=O)O)cc(S(=O)(=O)O)c(N)c2c1O [Evans blue] | 186 | 633 | 216 | 83 ± 12 | 154 ± 13 | 60 ± 8 | 29 ± 4 | 21 ± 2 | 19 ± 2 | – | – | – | – | – | – | – | – | – | –
[82Rb+].[Cl-] [^82Rb, rubidium-82 (^82Rb) chloride] | – | – | – | – | – | – | – | – | – | 4.9±1.4 | no differences | – | – | – | – | – | – | – | –
[C-]#[N+]CC(C)(C)OC.[C-]#[N+]CC(C)(C)OC.[C-]#[N+]CC(C)(C)OC.[C-]#[N+]CC(C)(C)OC.[C-]#[N+]CC(C)(C)OC.[C-]#[N+]CC(C)(C)OC.[Tc] [^99mTc sestamibi] | – | – | – | – | – | – | – | – | – | 4.6±1.3 | – | zero | 5.4±0.7 | 7 | 1 | 18 | 5.4 ± 4.2 | 3.1 ± 3.3 | 8.6 ± 5.8

From patent US10842892B2, “Methods and apparatus for synthesizing imaging agents, and intermediates thereof” (Lantheus Medical Imaging, Inc., priority 2010, dated 2020)
